# Reference: patent publication US20130150325A1, “3-(Fluorovinyl)pyrazoles and their use” (BAYER INTELLECTUAL PROPERTY GMBH, priority 2011, published 2013)
# System: HCT 116 cells transfected with a luciferase reporter under the control of an HIF-responsive sequence
# Assay: HIF-luciferase assay
# Assay type: cell-based
# Conditions: Homo sapiens; HCT 116 HIF-luciferase reporter cells, hypoxia chamber (1% O2), 24 h; in some cases means of up to four individual determinations
# Experimental: HCT 116 cells were transfected in a stable manner with a plasmid which contained a luciferase reporter under the control of an HIF-responsive sequence. These cells were sown in microtitre plates [20 000 cells/cavity in RPMI 1640 medium with 10% foetal calf serum (FCS) and 100 μg/ml of hygromycin]. Incubation was carried out overnight under standard conditions (5% CO2, 21% O2, 37° C., moistened). The following morning the cells were incubated with various concentrations of the test substances (0-10 μmol/l) in a hypoxia chamber (1% O2). After 24 h, Bright Glo reagent (Promega, Wisconsin, USA) was added in accordance with the manufacturer's instructions, and after 5 min the luminescence was measured. Cells which were incubated under normoxia served as background controls.
# The IC50 values from this assay for representative working examples are listed in the following table (in same cases as means of up to four individual determinations): […]
row,Compound,IC50
1,"CNc1ccc(Cn2nc(/C(F)=C/c3ccc(C4(C(F)(F)F)CC4)cc3)cc2C)cn1 [Example 84, 5-({3-[(Z)-1-Fluoro-2-{4-[1-(trifluoromethyl)cyclopropyl]phenyl}vinyl]-5-methyl-1H-pyrazol-1-yl}methyl)-N-methylpyridine-2-amine]",2 nM
2,"CNc1ccc(Cn2nc(/C(F)=C/c3ccc(C(F)(F)F)cc3)cc2C)cn1 [Example 85, 5-[(3-{(Z)-1-Fluoro-2-[4-(trifluoromethyl)phenyl]vinyl}-5-methyl-1H-pyrazol-1-yl)methyl]-N-methylpyridine-2-amine]",4 nM
3,"CNc1ccc(Cn2nc(/C(F)=C/c3ccc([Si](C)(C)C)cc3)cc2C)cn1 [Example 86, 5-[(3-{(Z)-1-Fluoro-2-[4-(trimethylsilyl)phenyl]vinyl}-5-methyl-1H-pyrazol-1-yl)methyl]-N-methylpyridine-2-amine]",0.3 nM
4,"CNc1ccc(Cn2nc(/C(F)=C/c3ccc(C(C)(C)C)cc3)cc2C)cn1 [Example 87, 5-({3-[(Z)-2-(4-tert-Butylphenyl)-1-fluorovinyl]-5-methyl-1H-pyrazol-1-yl}methyl)-N-methylpyridine-2-amine]",0.7 nM
5,"CNc1ccc(Cn2nc(/C(F)=C/c3ccc(C4CCCCC4)cc3)cc2C)cn1 [Example 88, 5-({3-[(Z)-2-(4-Cyclohexylphenyl)-1-fluorovinyl]-5-methyl-1H-pyrazol-1-yl}methyl)-N-methylpyridine-2-amine]",2 nM
6,"CNc1ccc(Cn2nc(/C(F)=C/c3ccc(C(C)C)cc3)cc2C)cn1 [Example 89, 5-({3-[(Z)-1-Fluoro-2-(4-isopropylphenyl)vinyl]-5-methyl-1H-pyrazol-1-yl}methyl)-N-methyl-pyridine-2-amine]",2 nM
7,"CNc1ccc(Cn2nc(/C(F)=C/c3ccc(CC(C)C)cc3)cc2C)cn1 [Example 90, 5-({3-[(Z)-1-Fluoro-2-(4-isobutylphenyl)vinyl]-5-methyl-1H-pyrazol-1-yl}methyl)-N-methyl-pyridine-2-amine]",2 nM
8,"CNc1ccc(Cn2nc(/C(F)=C/c3ccc(S(F)(F)(F)(F)F)cc3)cc2C)cn1 [Example 91, 5-[(3-{(Z)-1-Fluoro-2-[4-(pentafluoro-λ^6-sulphanyl)phenyl]vinyl}-5-methyl-1H-pyrazol-1-yl)-methyl]-N-methylpyridine-2-amine]",0.3 nM
9,"CCNC(=O)C(C)(C)Sc1ccc(/C=C(\F)c2cc(C)n(Cc3ccc(NC)nc3)n2)cc1 [Example 92, N-Ethyl-2-({4-[(Z)-2-fluoro-2-(5-methyl-1-{[6-(methylamino)pyridin-3-yl]methyl}-1H-pyrazol-3-yl)vinyl]phenyl}sulphanyl)-2-methylpropanamide]",5 nM
10,"CNc1ccc(Cn2nc(/C(F)=C/c3ccc(SC(C)(C)C(=O)N4CCCC4)cc3)cc2C)cn1 [Example 93, 2-({4-[(Z)-2-Fluoro-2-(5-methyl-1-{[6-(methylamino)pyridin-3-yl]methyl}-1H-pyrazol-3-yl)-vinyl]phenyl}sulphanyl)-2-methyl-1-(pyrrolidin-1-yl)propan-1-one]",5 nM
11,"CNc1ccc(Cn2nc(/C(F)=C/c3ccc(CN(C(C)C)C(C)C)cc3)cc2C)cn1 [Example 94, 5-({3-[(Z)-2-{4-[(Diisopropylamino)methyl]phenyl}-1-fluorovinyl]-5-methyl-1H-pyrazol-1-yl}-methyl)-N-methylpyridine-2-amine]",1 nM
12,"CNc1ccc(Cn2nc(/C(F)=C/c3ccc(N4CC(C)OC(C)C4)nc3)cc2C)cn1 (centres unmarked) [Example 95, 5-[(3-{(Z)-2-[6-(2,6-Dimethylmorpholin-4-yl)pyridin-3-yl]-1-fluorovinyl}-5-methyl-1H-pyrazol-1-yl)methyl]-N-methylpyridine-2-amine]",0.6 nM
13,"CCNc1ccc(Cn2nc(/C(F)=C/c3ccc(C(C)(C)C(F)(F)F)cc3)cc2C)cn1 [Example 96, N-Ethyl-5-[(3-{(Z)-1-fluoro-2-[4-(1,1,1-trifluoro-2-methylpropan-2-yl)phenyl]vinyl}-5-methyl-1H-pyrazol-1-yl)methyl]pyridine-2-amine]",1 nM
14,"CCNc1ccc(Cn2nc(/C(F)=C/c3ccc(C(O)(C(F)(F)F)C(F)(F)F)cc3)cc2C)cn1 [Example 97, 2-{4-[(Z)-2-(1-{[6-(Ethylamino)pyridin-3-yl]methyl}-5-methyl-1H-pyrazol-3-yl)-2-fluorovinyl]-phenyl}-1,1,1,3,3,3-hexafluoropropan-2-ol]",20 nM
15,"Cc1cc(/C(F)=C/c2ccc(OC(F)(F)F)cc2)nn1Cc1ccnc(N2CCN(C3CC3)CC2)c1 [Example 102, 1-Cyclopropyl-4-{4-[(3-{(Z)-1-fluoro-2-[4-(trifluoromethoxy)phenyl]vinyl}-5-methyl-1H-pyrazol-1-yl)methyl]pyridin-2-yl}piperazine]",0.5 nM
16,"Cc1cc(/C(F)=C/c2ccc([Si](C)(C)C)cc2)nn1Cc1ccnc(N2CCN(C3CC3)CC2)c1 [Example 106, 1-Cyclopropyl-4-{4-[(3-{(Z)-1-fluoro-2-[4-(trimethylsilyl)phenyl]vinyl}-5-methyl-1H-pyrazol-1-yl)methyl]pyridin-2-yl}piperazine]",0.5 nM

# Next, values leading:
row,IC50,Compound
1,2.5 nM,"Cc1cc(/C(F)=C/c2ccc(OC(F)(F)F)c(Cl)c2)nn1Cc1ccnc(N2CCN(C3CC3)CC2)c1 [Example 103, 1-{4-[(3-{(Z)-2-[3-Chloro-4-(trifluoromethoxy)phenyl]-1-fluorovinyl}-5-methyl-1H-pyrazol-1-yl)-methyl]pyridin-2-yl}-4-cyclopropylpiperazine]"
2,0.4 nM,"Cc1cc(/C(F)=C/c2ccc(C(C)(C)C(F)(F)F)cc2)nn1Cc1ccnc(N2CCN(C3CC3)CC2)c1 [Example 104, 1-Cyclopropyl-4-{4-[(3-{(Z)-1-fluoro-2-[4-(1,1,1-trifluoro-2-methylpropan-2-yl)phenyl]vinyl}-5-methyl-1H-pyrazol-1-yl)methyl]pyridin-2-yl}piperazine]"
3,0.5 nM,"Cc1cc(/C(F)=C/c2ccc(C3(C(F)(F)F)CC3)cc2)nn1Cc1ccnc(N2CCN(C3CC3)CC2)c1 [Example 105, 1-Cyclopropyl-4-[4-({3-[(Z)-1-fluoro-2-{4-[1-(trifluoromethyl)cyclopropyl]phenyl}vinyl]-5-methyl-1H-pyrazol-1-yl}methyl)pyridin-2-yl]piperazine]"
4,0.3 nM,"Cc1cc(/C(F)=C/c2ccc(S(F)(F)(F)(F)F)cc2)nn1Cc1ccnc(N2CCN(C3CC3)CC2)c1 [Example 107, 1-Cyclopropyl-4-{4-[(3-{(Z)-1-fluoro-2-[4-(pentafluoro-λ^6-sulphanyl)phenyl]vinyl}-5-methyl-1H-pyrazol-1-yl)methyl]pyridin-2-yl}piperazine]"
5,3 nM,"Cc1cc(/C(F)=C/c2ccc(C(O)(C(F)(F)F)C(F)(F)F)cc2)nn1Cc1ccnc(N2CCN(C3CC3)CC2)c1 [Example 108, 2-{4-[(Z)-2-(1-{[2-(4-Cyclopropylpiperazin-1-yl)pyridin-4-yl]methyl}-5-methyl-1H-pyrazol-3-yl)-2-fluorovinyl]phenyl}-1,1,1,3,3,3-hexafluoropropan-2-ol]"
6,1.5 nM,"Cc1cc(/C(F)=C/c2ccc(CN(C(C)C)C(C)C)cc2)nn1Cc1ccnc(N2CCN(C3CC3)CC2)c1 [Example 109, N-{4-[(Z)-2-(1-{[2-(4-Cyclopropylpiperazin-1-yl)pyridin-4-yl]methyl}-5-methyl-1H-pyrazol-3-yl)-2-fluorovinyl]benzyl}-N-isopropylpropane-2-amine]"
7,1 nM,"Cc1cc(/C(F)=C/c2ccc(C(C)(C)C)cc2)nn1Cc1ccnc(N2CCN(CC(F)(F)F)CC2)c1 [Example 110, 1-[4-({3-[(Z)-2-(4-tert-Butylphenyl)-1-fluorovinyl]-5-methyl-1H-pyrazol-1-yl}methyl)pyridin-2-yl]-4-(2,2,2-trifluoroethyl)piperazine]"
8,40 nM,"Cc1ccc(Cn2nc(/C=C(\F)c3ccc(OC(F)(F)F)cc3)cc2C)cc1 [Example 111, 3-{(Z)-2-Fluoro-2-[4-(trifluoromethoxy)phenyl]vinyl}-5-methyl-1-(4-methylbenzyl)-1H-pyrazole]"
9,4 nM,"Cc1cc(/C=C(\F)c2ccc(OC(F)(F)F)cc2)nn1Cc1cccc(N2CC(O)C2)c1 [Example 113, 1-{3-[(3-{(Z)-2-Fluoro-2-[4-(trifluoromethoxy)phenyl]vinyl}-5-methyl-1H-pyrazol-1-yl)methyl]-phenyl}azetidin-3-ol]"
10,40 nM,"Cc1cc(/C=C(\F)c2ccc(OC(F)(F)F)cc2)nn1Cc1cccc(C(=O)N2CCCC2)c1 [Example 114, {3-[(3-{(Z)-2-Fluoro-2-[4-(trifluoromethoxy)phenyl]vinyl}-5-methyl-1H-pyrazol-1-yl)methyl]-phenyl}(pyrrolidin-1-yl)methanone]"
11,30 nM,"CNc1ccc(Cn2nc(/C=C(\F)c3ccc(OC(F)(F)F)cc3)cc2C)cn1 [Example 117, 5-[(3-{(Z)-2-Fluoro-2-[4-(trifluoromethoxy)phenyl]vinyl}-5-methyl-1H-pyrazol-1-yl)methyl]-N-methylpyridine-2-amine]"
12,20 nM,"Cc1cc(/C=C(\F)c2ccc(OC(F)(F)F)cc2)nn1Cc1ccnc(N2CCN(C3CC3)CC2)c1 [Example 120, 1-Cyclopropyl-4-{4-[(3-{(Z)-2-fluoro-2-[4-(trifluoromethoxy)phenyl]vinyl}-5-methyl-1H-pyrazol-1-yl)methyl]pyridin-2-yl}piperazine]"
13,40 nM,"Cc1cc(/C=C(\F)c2ccc(OC(F)(F)F)cc2)nn1Cc1cccc(C(C)(C)O)c1 [Example 121, 2-{3-[(3-{(Z)-2-Fluoro-2-[4-(trifluoromethoxy)phenyl]vinyl}-5-methyl-1H-pyrazol-1-yl)methyl]phenyl}propan-2-ol]"
